In ChEMBL document CHEMBL1155434, “Discovery of a new series of 5-HT1A receptor agonists” (Bioorg Med Chem Lett, 2010):

Key:
Vas deferens = experiment: Inhibition of noradrenaline-induced contraction in rat prostatic vas deferens; format: functional
Spleen = experiment: Inhibition of noradrenaline-induced contraction in rat spleen; format: functional
[1] = target: T1, Alpha-1D adrenergic receptor (Homo sapiens, UniProt P25100); experiment: Displacement of [3H]prazosin from human Alpha-1D adrenergic receptor expressed in CHO cells; format: cell-based
T1 sequence (P25100 whole entry): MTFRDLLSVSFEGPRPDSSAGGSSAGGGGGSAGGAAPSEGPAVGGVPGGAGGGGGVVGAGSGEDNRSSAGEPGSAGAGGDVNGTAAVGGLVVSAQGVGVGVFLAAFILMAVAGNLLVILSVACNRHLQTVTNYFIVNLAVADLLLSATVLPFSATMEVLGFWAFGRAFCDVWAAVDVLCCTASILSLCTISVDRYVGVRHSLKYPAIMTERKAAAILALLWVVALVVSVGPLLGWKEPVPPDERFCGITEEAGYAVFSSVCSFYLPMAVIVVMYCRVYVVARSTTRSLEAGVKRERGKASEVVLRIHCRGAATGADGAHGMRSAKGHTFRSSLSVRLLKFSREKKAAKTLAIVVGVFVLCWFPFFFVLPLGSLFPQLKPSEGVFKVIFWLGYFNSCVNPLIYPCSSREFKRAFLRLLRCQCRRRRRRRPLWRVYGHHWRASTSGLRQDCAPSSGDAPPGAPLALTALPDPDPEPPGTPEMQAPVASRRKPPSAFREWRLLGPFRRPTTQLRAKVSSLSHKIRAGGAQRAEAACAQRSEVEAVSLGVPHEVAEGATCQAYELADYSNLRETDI

[2] = target: T2, Alpha-1B adrenergic receptor (Homo sapiens, UniProt P35368); experiment: Displacement of [3H]prazosin from human Alpha-1B adrenergic receptor expressed in CHO cells; format: cell-based
T2 sequence (P35368 whole entry): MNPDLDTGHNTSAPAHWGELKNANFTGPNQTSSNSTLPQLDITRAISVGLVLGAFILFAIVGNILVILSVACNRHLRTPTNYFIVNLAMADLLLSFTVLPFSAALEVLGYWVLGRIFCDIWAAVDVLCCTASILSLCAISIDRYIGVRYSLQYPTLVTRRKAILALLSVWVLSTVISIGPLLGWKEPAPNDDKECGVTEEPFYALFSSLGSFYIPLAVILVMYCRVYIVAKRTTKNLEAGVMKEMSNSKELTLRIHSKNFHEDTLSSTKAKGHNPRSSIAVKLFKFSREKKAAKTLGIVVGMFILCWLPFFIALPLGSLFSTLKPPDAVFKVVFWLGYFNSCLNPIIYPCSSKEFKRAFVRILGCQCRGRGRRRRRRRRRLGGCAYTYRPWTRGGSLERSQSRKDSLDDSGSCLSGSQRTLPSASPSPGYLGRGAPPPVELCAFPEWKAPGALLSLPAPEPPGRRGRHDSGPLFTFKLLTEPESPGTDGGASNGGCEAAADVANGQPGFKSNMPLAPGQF

[3] = target: T3, 5-hydroxytryptamine receptor 1A (Homo sapiens) (UniProt P08908); experiment: Agonist activity at human recombinant 5HT1A receptor expressed in human HeLa cells by [35S]GTPgammaS binding assay relative to serotonin; format: functional, cell-based
T3 sequence (whole entry): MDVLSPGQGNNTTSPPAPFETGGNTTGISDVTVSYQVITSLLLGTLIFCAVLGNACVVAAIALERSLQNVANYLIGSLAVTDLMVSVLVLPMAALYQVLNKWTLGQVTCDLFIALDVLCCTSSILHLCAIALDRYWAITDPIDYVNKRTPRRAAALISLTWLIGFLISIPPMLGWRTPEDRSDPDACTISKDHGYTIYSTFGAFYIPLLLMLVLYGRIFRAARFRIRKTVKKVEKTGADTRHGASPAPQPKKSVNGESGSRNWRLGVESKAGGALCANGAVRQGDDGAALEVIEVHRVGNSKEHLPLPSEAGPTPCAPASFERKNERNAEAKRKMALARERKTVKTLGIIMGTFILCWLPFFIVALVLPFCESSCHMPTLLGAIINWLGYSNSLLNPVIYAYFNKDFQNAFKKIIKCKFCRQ

Thoracic aorta = experiment: Inhibition of noradrenaline-induced contraction in rat thoracic aorta; format: functional
[4] = target: T3, 5-hydroxytryptamine receptor 1A (Homo sapiens); experiment: Agonist activity at human recombinant 5HT1A receptor expressed in human HeLa cells by [35S]GTPgammaS binding assay; format: functional, cell-based
Homo sapiens = species: Homo sapiens; experiment: Selectivity ratio of pKi for human 5-HT1A receptor to pKi for human alpha1 adrenergic receptor
[5] = target: T4, 5-hydroxytryptamine receptor 1A (Homo sapiens, UniProt P08908); experiment: Displacement of [3H]8-OH-DPAT from human 5-HT1A receptor expressed in human HeLa cells; format: cell-based
T4 sequence (P08908 whole entry): T3 sequence (whole entry)

[6] = target: T5, Alpha-1A adrenergic receptor (Homo sapiens, UniProt P35348); experiment: Displacement of [3H]prazosin from human alpha1A adrenergic receptor expressed in CHO cells; format: cell-based
T5 sequence (P35348 whole entry): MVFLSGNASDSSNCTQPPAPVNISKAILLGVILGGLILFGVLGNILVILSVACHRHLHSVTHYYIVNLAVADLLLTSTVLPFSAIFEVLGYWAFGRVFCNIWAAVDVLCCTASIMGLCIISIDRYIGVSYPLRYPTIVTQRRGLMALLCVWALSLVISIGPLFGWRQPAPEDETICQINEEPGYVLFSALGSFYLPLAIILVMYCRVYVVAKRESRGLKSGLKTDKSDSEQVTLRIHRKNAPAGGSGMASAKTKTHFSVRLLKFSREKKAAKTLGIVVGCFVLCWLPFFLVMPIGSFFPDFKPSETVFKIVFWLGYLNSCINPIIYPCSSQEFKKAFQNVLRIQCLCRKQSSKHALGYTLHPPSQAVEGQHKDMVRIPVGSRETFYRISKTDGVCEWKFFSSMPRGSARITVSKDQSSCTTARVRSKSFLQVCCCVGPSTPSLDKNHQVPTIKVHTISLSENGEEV

Compound | pKb (Vas deferens) | pKb (Spleen) | Ki [1] [nM] | Ki [2] [nM] | Emax [3] [%] | pKb (Thoracic aorta) | pD2 [4] | Ratio pKi (Homo sapiens) | Ki [5] [nM] | Ki [6] [nM]
COc1cccc(OCCNCC2COC(c3ccccc3)(c3ccccc3)O2)c1 (racemic) | 5.75 | 5.79 | 57.5 | 58.9 | 14 | 6.61 | 5.97 | 22 | 2.63 | 91.2
c1ccc(-c2ccc(OCCNCC3COC(c4ccccc4)(c4ccccc4)O3)cc2)cc1 (racemic) | 5.65 | 5.84 | > 1000 | > 1000 |  | 5.08 |  |  | > 1000 | > 1000
c1ccc(-c2cccc(OCCNCC3COC(c4ccccc4)(c4ccccc4)O3)c2)cc1 (racemic) | 5.19 | 6.21 | > 1000 | > 1000 |  | <5 |  | > 35 | 28.8 | > 1000
c1ccc(-c2ccccc2OCCNCC2COC(c3ccccc3)(c3ccccc3)O2)cc1 (racemic) | <5 | 5.47 | 331 | > 1000 | 73 | 6.1 | 7.82 | 151 | 2.19 | 490
CC(C)Oc1ccccc1OCCNCC1COC(c2ccccc2)(c2ccccc2)O1 (racemic) | 7.25 | 7.25 | 6.31 | 20 | 25 | 7.59 | 9.08 | 1 | 1.7 | 2.09
CCOc1ccccc1OCCNCC1COC(c2ccccc2)(c2ccccc2)O1 (racemic) | 7.23 | 6.92 | 6.76 | 53.7 | 36 | 7.91 | 9.08 | 7 | 0.891 | 6.61
COc1cc(OC)cc(OCCNCC2COC(c3ccccc3)(c3ccccc3)O2)c1 (racemic) | 5.41 | 5.49 | > 1000 | 447 |  | 6.77 |  | 0.2 | > 1000 | 302
COc1ccc(OCCNCC2COC(c3ccccc3)(c3ccccc3)O2)cc1OC (racemic) | 5.09 | 6.01 | > 1000 | 138 |  | 6.9 |  | 1.4 | 97.7 | > 1000
COc1cccc(OCCNCC2COC(c3ccccc3)(c3ccccc3)O2)c1OC (racemic) | 5.86 | 5.85 | 355 | 174 |  | 6.64 |  | 11 | 7.59 | 85.1
COc1ccccc1OCCNCC1COC(c2ccccc2)(c2ccccc2)O1 (racemic) | 7.53 | 7.36 |  | 46.8 | 32 | 8.65 | 7.36 | 15 | 0.603 | 19.5
c1ccc(OCCNCC2COC(c3ccccc3)(c3ccccc3)O2)cc1 (racemic) | 6.16 | 5.86 |  |  | 24 | 8.37 | 8.8 | 3 | 3.55 | 
COc1ccccc1OCCNCC1CSC(c2ccccc2)(c2ccccc2)O1 (racemic) | 6.71 | 8.44 | 6.61 | 100 | 76 | 8.68 | 8.94 | 6 | 1.02 | 20.9
Cc1ccccc1OCCNCC1COC(c2ccccc2)(c2ccccc2)O1 (racemic) | 6.02 | 5.73 | 25.7 | 240 |  | 6.77 |  | 3 | 8.32 | 117
COc1ccccc1OCCNCC1CSC(c2ccccc2)(c2ccccc2)S1 (racemic) | 5.8 | 5.87 | 20.4 | 117 | 20 | 7.5 | 7.76 | 158 | 0.129 | 35.5
COc1cccc(OC)c1OCCNCC1COC(c2ccccc2)(c2ccccc2)O1 (racemic) | 5.73 | 5.89 | 182 | 75.9 |  | 6.93 |  | 14 | 53.7 | 100
COc1ccc(OCCNCC2COC(c3ccccc3)(c3ccccc3)O2)cc1 (racemic) | <5 | 6.25 |  |  |  | 6.94 |  |  |  | 
COc1ccccc1CCCNCC1COC(c2ccccc2)(c2ccccc2)O1 (racemic) | 5.92 | 5.97 | 50.1 | 41.7 | 14 | 6.86 | 5.92 | 6 | 7.94 | 49
CCCN(CCC)C1CCc2cccc(O)c2C1 (stereo not drawn) [8-OH-DPAT] |  |  |  | > 1000 |  |  |  |  |  | 
COc1ccccc1N1CCN(CCN2C(=O)CC3(CCCC3)CC2=O)CC1 [BMY-7378] |  | 7.48 |  |  | 26 |  | 9.27 |  |  | 
